A short description of this assay: Sensory panel ranking of lingering aftertaste masking on a 0-5 scale (Example III). It is filed as in vivo. To be noted: for Masking Effect: scale of 0-5, 0=no masking, 5=very strong masking; for Taste compared with the control: αG SWEET 0.14% solution, water used in control group, concentration series. The procedure: A solution of αG SWEET was prepared in water at a concentration of 0.14%. The Emblica officinalis fruit extract (prepared as above in Example I) containing the mucic acid 2-O-gallate (11.84%) and mucic acid lactone gallate (6.35%) mixture, individual fractions containing each of mucic acid 2-O-gallate, mucic acid lactone gallate, galloyl glucose (prepared in Example I) and mucic acid 3-O-gallate (Quality Phytochemicals, LLC, New Jersey, U.S.) were added to the αG SWEET solution, respectively, to achieve a series of concentrations ranging from about 50-80 ppm for the Emblica officinalis fruit extract; about 5-20 ppm for mucic acid 2-O-gallate; about 5-20 ppm for mucic acid 3-O-gallate; about 2-10 ppm for mucic acid lactone gallate; and about 10-20 ppm for galloyl glucose. Water was used in a control group. Samples were presented in a blind and pseudorandom order to a sensory panel. The lingering aftertaste-masking effect was evaluated by ranking the suppression of bitterness, metallic aftertaste and lingering sweetness on a scale of 0-5, where 0=no masking and 5=very strong masking.

[1] abbreviates: 20 ppm in αG SWEET 0.14% solution.

Turning to `O=C(OC(C(O)C(=O)O)C(O)C(O)C(=O)O)c1cc(O)c(O)c(O)c1` (centres unmarked) [Mucic Acid 3-O-Gallate, mucic acid 3-O-gallate], the “Taste compared with the control” value is “tasted considerably less bitter and the lingering metallic off-note was reduced”. Besides, the “Masking Effect” value under setting [1] amounted to 1.

For `O=C(OC(C(=O)O)C(O)C(O)C(O)C(=O)O)c1cc(O)c(O)c(O)c1` (centres unmarked) [Mucic acid 2-O-gallate, mucic acid 2-O-gallate], the “Taste compared with the control” value is “tasted considerably less bitter and the lingering metallic off-note was reduced”. The “Masking Effect” value under setting [1] came out at 1.

As for `O=C(OC(C(=O)O)C1OC(=O)C(O)C1O)c1cc(O)c(O)c(O)c1` (centres unmarked) [Mucic acid lactone gallate, mucic acid lactone gallate], the “Taste compared with the control” value is “tasted considerably less bitter and the lingering metallic off-note was reduced”. Further, for the setting “10 ppm in αG SWEET 0.14% solution”, the “Masking Effect” value stood at 2.

With galloyl glucose [reference compound], the “Taste compared with the control” value was “very low effect”. In addition, under setting [1], the “Masking Effect” value is 0.

The record behind these values is US11191291B2, “Compositions for taste masking” (International Flavors & Fragrances Inc., priority 2016, dated 2021).
